Results as given in US20250235543A1, “MODIFIED PROTEINS AND PROTEIN DEGRADERS” (Cullgen (Shanghai), Inc., priority 2021, published 2025).
Read-outs that look alike come from different tables or passages of the source.

How the values were obtained:
cyclin D1 = assay: Cyclin D1 percentage degradation in Calu-1 cells (immunoblotting); type: cell-based; conditions: 200 nM, 16 hours
How it was run: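 Cyclin D1 degradation was assessed by western blot. Clarified lysates, obtained by RIPA lysis with inhibitors and centrifugation at 13,000 rpm, were normalized by BCA protein assay and separated by SDS-PAGE. Bands were detected with Western ECL Substrate on a Bio-Rad ChemiDoc MP Imaging system and quantified in Image Lab software to derive percentage degradation.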

CDK4 = molecular target: T1, CDK4 (Homo sapiens, UniProt P11802); assay: CDK4 percentage degradation in Calu-1 cells (immunoblotting); type: cell-based; conditions: read-out: CDK4 Degradation (200 nM)
T1 construct: endogenous in cells; host or cells: Calu-1
T1 sequence (P11802 2-303 limits assumed): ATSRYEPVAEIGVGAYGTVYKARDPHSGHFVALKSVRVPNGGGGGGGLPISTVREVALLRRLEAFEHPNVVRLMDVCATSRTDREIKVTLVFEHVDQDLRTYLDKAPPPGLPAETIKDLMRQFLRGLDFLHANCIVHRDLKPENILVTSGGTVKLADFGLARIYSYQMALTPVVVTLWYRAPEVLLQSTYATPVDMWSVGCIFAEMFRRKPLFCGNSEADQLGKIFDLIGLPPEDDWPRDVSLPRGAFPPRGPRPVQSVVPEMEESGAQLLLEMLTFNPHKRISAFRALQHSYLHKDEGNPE
T1 sequence (P24385 whole entry partner): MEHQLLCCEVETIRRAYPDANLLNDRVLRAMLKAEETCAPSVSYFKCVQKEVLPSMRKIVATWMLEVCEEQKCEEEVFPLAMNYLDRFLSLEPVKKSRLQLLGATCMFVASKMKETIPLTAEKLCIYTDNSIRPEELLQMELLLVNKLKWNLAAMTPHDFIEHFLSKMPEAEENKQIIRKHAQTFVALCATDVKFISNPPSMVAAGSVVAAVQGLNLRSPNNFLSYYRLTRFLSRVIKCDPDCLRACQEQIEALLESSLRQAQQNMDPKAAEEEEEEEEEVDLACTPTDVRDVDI
T1 sequence (Q16531 2-1140 limits assumed, further chain): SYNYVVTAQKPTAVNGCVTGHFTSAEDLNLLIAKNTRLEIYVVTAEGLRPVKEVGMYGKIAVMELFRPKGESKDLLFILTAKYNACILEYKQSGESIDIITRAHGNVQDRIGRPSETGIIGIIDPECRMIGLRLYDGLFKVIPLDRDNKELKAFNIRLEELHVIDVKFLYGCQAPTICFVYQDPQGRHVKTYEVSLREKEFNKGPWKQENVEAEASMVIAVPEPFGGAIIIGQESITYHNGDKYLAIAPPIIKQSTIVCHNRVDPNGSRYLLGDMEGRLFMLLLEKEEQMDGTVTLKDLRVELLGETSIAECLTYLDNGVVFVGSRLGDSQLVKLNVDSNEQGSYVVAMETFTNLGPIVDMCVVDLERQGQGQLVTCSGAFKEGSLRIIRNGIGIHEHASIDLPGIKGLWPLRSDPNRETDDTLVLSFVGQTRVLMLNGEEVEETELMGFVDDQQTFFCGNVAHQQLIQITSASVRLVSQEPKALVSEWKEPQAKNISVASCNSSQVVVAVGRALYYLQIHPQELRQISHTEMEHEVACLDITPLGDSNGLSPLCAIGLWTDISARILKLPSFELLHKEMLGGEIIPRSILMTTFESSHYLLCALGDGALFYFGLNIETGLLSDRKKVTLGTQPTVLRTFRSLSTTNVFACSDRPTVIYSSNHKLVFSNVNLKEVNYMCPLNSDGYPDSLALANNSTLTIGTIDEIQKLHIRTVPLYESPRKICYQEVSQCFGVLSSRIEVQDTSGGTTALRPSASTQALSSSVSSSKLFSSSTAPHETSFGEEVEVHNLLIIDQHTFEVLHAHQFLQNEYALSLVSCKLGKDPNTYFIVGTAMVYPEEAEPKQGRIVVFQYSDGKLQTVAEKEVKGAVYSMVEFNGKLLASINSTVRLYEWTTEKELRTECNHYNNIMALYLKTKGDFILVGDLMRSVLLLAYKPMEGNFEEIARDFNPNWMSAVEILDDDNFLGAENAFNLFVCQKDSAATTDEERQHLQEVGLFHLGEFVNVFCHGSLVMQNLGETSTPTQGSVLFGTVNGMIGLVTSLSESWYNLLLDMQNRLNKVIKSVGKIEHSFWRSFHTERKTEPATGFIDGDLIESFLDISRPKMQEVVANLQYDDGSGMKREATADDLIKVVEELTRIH
How it was run: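 CDK4 degradation was measured by immunoblotting. Cells were washed in cold PBS and lysed in RIPA buffer with inhibitors for 30 min at 4° C., then spun at 13,000 rpm to clear. After BCA protein determination, lysates were heated at 99° C. for 5 min in Laemmli buffer, resolved on SDS-PAGE, imaged on a ChemiDoc MP with ECL substrate, and band intensities quantified.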

| SMILES | CyclinD1 Degradation (200 nM) (cyclin D1) | inhibition at 0.2 µM (CDK4; Calu-1 cells, 200 nM, 16 hours) [%] | inhibition at 0.2 µM (CDK4; Calu-1, 16 h) [%] |
| --- | --- | --- | --- |
| CC(=O)c1c(C)c2cnc(Nc3ccc(N4CCN(CC(=O)NCCCCNc5ccc(C)c(C(=O)Nc6nc(C)c(C)s6)c5)CC4)cn3)nc2n(C2CCCC2)c1=O [CPD-088, 5-((4-(2-(4-(6-((6-Acetyl-8-cyclopentyl-5-methyl-7-oxo-7,8-dihydropyrido[2,3-d]pyrimidin-2-yl)amino)pyridin-3-yl)piperazin-1-yl)acetamido)butyl)amino)-N-(4,5-dimethylthiazol-2-yl)-2-methylbenzamide] | D (protein percentage degradation <30%) | < 30 |  |
| CNc1ccc(C(=O)Nc2nc(C)c(C)s2)c(NCCCCCCCNC(=O)CN2CCN(c3ccc(Nc4ncc5c(C)c(C(C)=O)c(=O)n(C6CCCC6)c5n4)nc3)CC2)c1 [CPD-370, 2-((7-(2-(4-(6-((6-Acetyl-8-cyclopentyl-5-methyl-7-oxo-7,8-dihydropyrido[2,3-d]pyrimidin-2-yl)amino)pyridin-3-yl)piperazin-1-yl)acetamido)heptyl)amino)-N-(4,5-dimethylthiazol-2-yl)-4-(methylamino)benzamide] | A (protein percentage degradation >=80%) | > 80 |  |
| CC(=O)c1c(C)c2cnc(Nc3ccc(N4CCN(CC(=O)NCCOCCOCCC(=O)Nc5ccccc5C(=O)Nc5ccc(OC(C)C)nn5)CC4)cn3)nc2n(C2CCCC2)c1=O [CPD-351, 2-(3-(2-(2-(2-(4-(6-((6-Acetyl-8-cyclopentyl-5-methyl-7-oxo-7,8-dihydropyrido[2,3-d]pyrimidin-2-yl)amino)pyridin-3-yl)piperazin-1-yl)acetamido)ethoxy)ethoxy)propanamido)-N-(6-isopropoxypyridazin-3-yl)benzamide] | D (protein percentage degradation <30%) | < 30 |  |
| CC(=O)c1c(C)c2cnc(Nc3ccc(N4CCN(CC(=O)NCCOCCOCCC(=O)Nc5ccc(F)cc5C(=O)Nc5nc(C)c(C)s5)CC4)cn3)nc2n(C2CCCC2)c1=O [CPD-152, 2-(3-(2-(2-(2-(4-(6-((6-Acetyl-8-cyclopentyl-5-methyl-7-oxo-7,8-dihydropyrido[2,3-d]pyrimidin-2-yl)amino)pyridin-3-yl)piperazin-1-yl)acetamido)ethoxy)ethoxy)propanamido)-N-(4,5-dimethylthiazol-2-yl)-5-fluorobenzamide] | A (protein percentage degradation >=80%) | 50 to 80 |  |
| CC(=O)c1c(C)c2cnc(Nc3ccc(N4CCN(CC(=O)NCCOCCOCCOCCOCCNc5cccc(C(=O)Nc6nc(C)c(C)s6)c5C)CC4)cn3)nc2n(C2CCCC2)c1=O [CPD-106, 3-((1-(4-(6-((6-Acetyl-8-cyclopentyl-5-methyl-7-oxo-7,8-dihydropyrido[2,3-d]pyrimidin-2-yl)amino)pyridin-3-yl)piperazin-1-yl)-2-oxo-6,9,12,15-tetraoxa-3-azaheptadecan-17-yl)amino)-N-(4,5-dimethylthiazol-2-yl)-2-methylbenzamide] | A (protein percentage degradation >=80%) | 50 to 80 |  |
| CC(=O)c1c(C)c2cnc(Nc3ccc(N4CCN(CC(=O)NCCOCCOCCC(=O)Nc5ccccc5C(=O)Nc5ccc(C6CC6)cn5)CC4)cn3)nc2n(C2CCCC2)c1=O [CPD-184, 2-(3-(2-(2-(2-(4-(6-((6-Acetyl-8-cyclopentyl-5-methyl-7-oxo-7,8-dihydropyrido[2,3-d]pyrimidin-2-yl)amino)pyridin-3-yl)piperazin-1-yl)acetamido)ethoxy)ethoxy)propanamido)-N-(5-cyclopropylpyridin-2-yl)benzamide] | A (protein percentage degradation >=80%) | 50 to 80 |  |
| CC(=O)c1c(C)c2cnc(Nc3ccc(N4CCN(CC(=O)NCCCCCCCCCNC(=O)c5ccc(C(=O)Nc6ncc(C)s6)c(C)c5)CC4)cn3)nc2n(C2CCCC2)c1=O [CPD-024, N^4-(9-(2-(4-(6-((6-Acetyl-8-cyclopentyl-5-methyl-7-oxo-7,8-dihydropyrido[2,3-d]pyrimidin-2-yl)amino)pyridin-3-yl)piperazin-1-yl)acetamido)nonyl)-2-methyl-N^1-(5-methylthiazol-2-yl)terephthalamide] | D (protein percentage degradation <30%) | < 30 |  |
| CC(=O)c1c(C)c2cnc(Nc3ccc(N4CCN(C(=O)CCCCNc5ccc(C)c(C(=O)Nc6nc(C)c(C)s6)c5)CC4)cn3)nc2n(C2CCCC2)c1=O [CPD-108, 5-((5-(4-(6-((6-Acetyl-8-cyclopentyl-5-methyl-7-oxo-7,8-dihydropyrido[2,3-d]pyrimidin-2-yl)amino)pyridin-3-yl)piperazin-1-yl)-5-oxopentyl)amino)-N-(4,5-dimethylthiazol-2-yl)-2-methylbenzamide] | D (protein percentage degradation <30%) |  | < 30 |
| CC(=O)c1c(C)c2cnc(Nc3ccc(N4CCN(CC(=O)NCCCCC(=O)Nc5ccccc5C(=O)Nc5ccc(C)cn5)CC4)cn3)nc2n(C2CCCC2)c1=O [CPD-269, 2-(5-(2-(4-(6-((6-Acetyl-8-cyclopentyl-5-methyl-7-oxo-7,8-dihydropyrido[2,3-d]pyrimidin-2-yl)amino)pyridin-3-yl)piperazin-1-yl)acetamido)pentanamido)-N-(5-methylpyridin-2-yl)benzamide] | B (protein percentage degradation <80%, and >=50%) | 50 to 80 |  |
| CC(=O)c1c(C)c2cnc(Nc3ccc(N4CCN(CC(=O)NCCOCCOCCC(=O)Nc5ccccc5C(=O)Nc5ccc(C#N)nn5)CC4)cn3)nc2n(C2CCCC2)c1=O [CPD-369, 2-(3-(2-(2-(2-(4-(6-((6-Acetyl-8-cyclopentyl-5-methyl-7-oxo-7,8-dihydropyrido[2,3-d]pyrimidin-2-yl)amino)pyridin-3-yl)piperazin-1-yl)acetamido)ethoxy)ethoxy)propanamido)-N-(6-cyanopyridazin-3-yl)benzamide] | D (protein percentage degradation <30%) | < 30 |  |
| CC(=O)c1c(C)c2cnc(Nc3ccc(N4CCN(CC(=O)NCCOCCOCCOCCOCCOCCNC(=O)CNc5ccc(C(=O)Nc6ncc(C)s6)c(C)c5)CC4)cn3)nc2n(C2CCCC2)c1=O [CPD-014, 4-((23-(4-(6-((6-Acetyl-8-cyclopentyl-5-methyl-7-oxo-7,8-dihydropyrido[2,3-d]pyrimidin-2-yl)amino)pyridin-3-yl)piperazin-1-yl)-2,22-dioxo-6,9,12,15,18-pentaoxa-3,21-diazatricosyl)amino)-2-methyl-N-(5-methylthiazol-2-yl)benzamide] | D (protein percentage degradation <30%) | < 30 |  |
| CC(=O)c1c(C)c2cnc(Nc3ccc(N4CCN(CC(=O)NCCOCCOCCOCCOCCOCCNc5ccc(C(=O)Nc6ncc(-c7ccccc7)s6)c(C)c5)CC4)cn3)nc2n(C2CCCC2)c1=O [CPD-001, 4-((1-(4-(6-((6-Acetyl-8-cyclopentyl-5-methyl-7-oxo-7,8-dihydropyrido[2,3-d]pyrimidin-2-yl)amino)pyridin-3-yl)piperazin-1-yl)-2-oxo-6,9,12,15,18-pentaoxa-3-azaicosan-20-yl)amino)-2-methyl-N-(5-phenylthiazol-2-yl)benzamide] | D (protein percentage degradation <30%) | < 30 |  |
| CC(=O)c1c(C)c2cnc(Nc3ccc(N4CCN(CC(=O)NCCCCC(=O)Nc5ccccc5C(=O)Nc5nc(C)c(C)s5)CC4)cn3)nc2n(C2CCCC2)c1=O [CPD-174, 2-(5-(2-(4-(6-((6-Acetyl-8-cyclopentyl-5-methyl-7-oxo-7,8-dihydropyrido[2,3-d]pyrimidin-2-yl)amino)pyridin-3-yl)piperazin-1-yl)acetamido)pentanamido)-N-(4,5-dimethylthiazol-2-yl)benzamide] | A (protein percentage degradation >=80%) | > 80 |  |
| CC(=O)c1c(C)c2cnc(Nc3ccc(N4CCN(CC(=O)NCCOCCOCCC(=O)Nc5ccccc5C(=O)Nc5cc[nH]n5)CC4)cn3)nc2n(C2CCCC2)c1=O [CPD-073, 2-(3-(2-(2-(2-(4-(6-((6-Acetyl-8-cyclopentyl-5-methyl-7-oxo-7,8-dihydropyrido[2,3-d]pyrimidin-2-yl)amino)pyridin-3-yl)piperazin-1-yl)acetamido)ethoxy)ethoxy)propanamido)-N-(1H-pyrazol-3-yl)benzamide] | D (protein percentage degradation <30%) | 50 to 80 |  |
| COc1ccc(NC(=O)c2ccccc2NC(=O)COCCN2CCC(NC(=O)CN3CCN(c4ccc(Nc5ncc6c(C)c(C(C)=O)c(=O)n(C7CCCC7)c6n5)nc4)CC3)CC2)nn1 [CPD-347, 2-(2-(2-(4-(2-(4-(6-((6-Acetyl-8-cyclopentyl-5-methyl-7-oxo-7,8-dihydropyrido[2,3-d]pyrimidin-2-yl)amino)pyridin-3-yl)piperazin-1-yl)acetamido)piperidin-1-yl)ethoxy)acetamido)-N-(6-methoxypyridazin-3-yl)benzamide] | D (protein percentage degradation <30%) | < 30 |  |
| CC(=O)c1c(C)c2cnc(Nc3ccc(N4CCN(CCCCCOCCOCCNc5cccc(C(=O)Nc6nc(C)c(C)s6)c5C)CC4)cn3)nc2n(C2CCCC2)c1=O [CPD-271, 3-((2-(2-((5-(4-(6-((6-Acetyl-8-cyclopentyl-5-methyl-7-oxo-7,8-dihydropyrido[2,3-d]pyrimidin-2-yl)amino)pyridin-3-yl)piperazin-1-yl)pentyl)oxy)ethoxy)ethyl)amino)-N-(4,5-dimethylthiazol-2-yl)-2-methylbenzamide] | D (protein percentage degradation <30%) |  | < 30 |
